Series [1] has as its target T1, Pseudomonas putida aldehyde dehydrogenase ppuALDH, SEQ ID NO: 267 (Pseudomonas putida, UniProt Q88K06).
T1 sequence (Q88K06 1-503): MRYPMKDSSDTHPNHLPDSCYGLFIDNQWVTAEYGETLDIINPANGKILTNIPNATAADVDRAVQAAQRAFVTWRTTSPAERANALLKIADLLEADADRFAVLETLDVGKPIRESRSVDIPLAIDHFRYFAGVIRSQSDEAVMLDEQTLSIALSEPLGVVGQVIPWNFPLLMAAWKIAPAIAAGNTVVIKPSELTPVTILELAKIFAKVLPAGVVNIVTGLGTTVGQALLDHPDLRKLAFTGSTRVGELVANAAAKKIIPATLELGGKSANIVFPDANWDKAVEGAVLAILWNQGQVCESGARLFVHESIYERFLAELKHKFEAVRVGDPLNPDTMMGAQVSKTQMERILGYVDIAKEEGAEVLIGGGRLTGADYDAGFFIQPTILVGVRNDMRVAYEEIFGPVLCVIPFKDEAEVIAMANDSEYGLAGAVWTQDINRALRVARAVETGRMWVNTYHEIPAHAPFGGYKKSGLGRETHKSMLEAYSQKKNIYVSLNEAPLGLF
As to the kind of experiment: Aldehyde dehydrogenase (glycolaldehyde to glycolic acid) kinetics, ppuALDH. Format: biochemical. An excerpt:
(§1) Enzyme expression and purification: The enzymes of interest were genetically engineered in the E. coli BL21 (DE3) strain on a high copy plasmid under control of the T7 promoter. The enzymes were tagged with a hexahistidine (His-tag) sequence to facilitate for purification. Post-expression, the His-tagged enzymes were selectively bound to a nickel-charged immobilized metal affinity chromatography (IMAC) resin, exploiting the high affinity between histidine residues and nickel ions. Upon washing away non-specifically bound proteins, the His-tagged enzymes were eluted with an imidazole-containing buffer and subsequently used for enzymatic assays.
Enzyme assays: Standard enzyme characterization protocols were performed to determine the activities of the enzymes. Dehydrogenase activity against the substrates was determined using a continuous assay following the increase in absorbance at 340 nm ε340 (NADH)=6.22 mM^−1. cm^−1, and ε340 (NADPH)=6.2 mM^−1·cm^−1]. Substrate screens were performed at 30 °C in a reaction mixture (200 μL) containing 50 mM of substrate in 100 mM Tris-HCl (pH 8.5), 1 mM NAD^+, 1 mM substrate, and 10 μg of purified protein. […]
A second enzymatic step in the processes described herein relate to the conversion of an aliphatic polyhydric aldehyde substrate (e.g., glycolaldehyde) to a corresponding alpha-hydroxy acid (e.g., glycolic acid). […] In order to identify potentially higher-performing enzymes for industrial use capable of converting glycolaldehyde to glycolic acid, we evaluated a plurality of candidates based on either close, medium, or distant phylogeny to ecoALDH (SEQ ID NO: 265). A subset of candidate enzymes were cloned, expressed, and purified, along with ecoALDH as a control, as described in Example 8.1, and their in vitro enzymatic activities were measured in a reaction mixture consisting of 50 mM glycolaldehyde in 100 mM Tris-HCl buffer (pH 8.5). The reaction was initiated by the addition of the purified enzyme, and activity was measured by monitoring the formation of glycolic acid over time. […]

Series [2] has as its system Gluconobacter oxydans zinc-dependent medium-chain alcohol dehydrogenase Gox0313, SEQ ID NO: 206. Conditions: role: substrate, Zhang et al., 2015, cited from earlier work.
Series [3] concerns the target T2, Escherichia coli aldehyde dehydrogenase ecoALDH (aldA), SEQ ID NO: 265 (Escherichia coli, UniProt P25553).
T2 construct: made in house; host or cells: E. coli BL21 (DE3)
T2 sequence (P25553 1-479): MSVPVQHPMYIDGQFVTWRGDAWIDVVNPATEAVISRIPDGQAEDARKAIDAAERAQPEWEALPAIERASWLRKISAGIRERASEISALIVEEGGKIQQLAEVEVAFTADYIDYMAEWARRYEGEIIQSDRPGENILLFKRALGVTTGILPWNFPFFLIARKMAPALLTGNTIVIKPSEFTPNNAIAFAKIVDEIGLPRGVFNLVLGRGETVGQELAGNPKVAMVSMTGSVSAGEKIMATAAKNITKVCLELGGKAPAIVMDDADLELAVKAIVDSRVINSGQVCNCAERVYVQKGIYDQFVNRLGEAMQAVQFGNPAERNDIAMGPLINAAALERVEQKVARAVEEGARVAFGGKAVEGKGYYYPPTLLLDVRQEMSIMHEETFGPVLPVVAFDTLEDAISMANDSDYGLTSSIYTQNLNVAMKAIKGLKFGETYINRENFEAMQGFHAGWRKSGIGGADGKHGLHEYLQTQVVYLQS
As to the kind of experiment: Aldehyde dehydrogenase (glycolaldehyde to glycolic acid) kinetics, ecoALDH. The format is biochemical.
Excerpt: as §1
(§2) Enzyme assays: Standard enzyme characterization protocols were performed to determine the activities of the enzymes. Dehydrogenase activity against the substrates was determined using a continuous assay following the increase in absorbance at 340 nm ε340 (NADH)=6.22 mM^−1. cm^−1, and ε340 (NADPH)=6.2 mM^−1·cm^−1]. […]
A second enzymatic step in the processes described herein relate to the conversion of an aliphatic polyhydric aldehyde substrate (e.g., glycolaldehyde) to a corresponding alpha-hydroxy acid (e.g., glycolic acid). […] The reaction was initiated by the addition of the purified enzyme, and activity was measured by monitoring the formation of glycolic acid over time. […]

The target of series [4] is T3, Azotobacter vinelandii aldehyde dehydrogenase aviALDH, SEQ ID NO: 266 (Azotobacter vinelandii, UniProt C1DMY3).
T3 sequence (C1DMY3 1-477): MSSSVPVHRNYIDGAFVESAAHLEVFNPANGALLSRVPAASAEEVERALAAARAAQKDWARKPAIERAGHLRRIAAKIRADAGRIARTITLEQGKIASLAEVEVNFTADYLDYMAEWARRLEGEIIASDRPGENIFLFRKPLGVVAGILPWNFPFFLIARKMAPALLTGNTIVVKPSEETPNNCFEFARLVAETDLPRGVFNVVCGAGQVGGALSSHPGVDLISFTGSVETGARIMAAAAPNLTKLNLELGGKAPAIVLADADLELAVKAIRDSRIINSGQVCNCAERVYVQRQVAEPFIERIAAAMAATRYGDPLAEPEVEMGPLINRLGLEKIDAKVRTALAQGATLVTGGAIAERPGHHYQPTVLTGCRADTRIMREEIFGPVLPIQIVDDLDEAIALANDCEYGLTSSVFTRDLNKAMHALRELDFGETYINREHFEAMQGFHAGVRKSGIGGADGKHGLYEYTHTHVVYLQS
Kind of series: Aldehyde dehydrogenase (glycolaldehyde to glycolic acid) kinetics, aviALDH. Format: biochemical.
Excerpt: as §1
Enzyme assays: Standard enzyme characterization protocols were performed to determine the activities of the enzymes. Dehydrogenase activity against the substrates was determined using a continuous assay following the increase in absorbance at 340 nm ε340 (NADH)=6.22 mM^−1. cm^−1, and ε340 (NADPH)=6.2 mM^−1·cm^−1]. Substrate screens were performed at 30 °C in a reaction mixture (200 μL) containing 50 mM of substrate in 100 mM Tris-HCl (pH 8.5), 1 mM NAD^+, 1 mM substrate, and 10 μg of purified protein. Initial velocity patterns of the enzymatic reaction were obtained by varying the concentrations of ethylene glycol at fixed concentrations of enzyme concentration in the presence of the saturating NAD concentrations.
A second enzymatic step in the processes described herein relate to the conversion of an aliphatic polyhydric aldehyde substrate (e.g., glycolaldehyde) to a corresponding alpha-hydroxy acid (e.g., glycolic acid). E. coli aldehyde dehydrogenase aldA (ecoALDH) has been reported to catalyze the intracellular enzymatic conversion of glycolaldehyde (GA) to glycolic acid (e.g., Wada et al. 2005; Morishige et al., 2007; Pandit et al., 2019; Pandit et al., 2021). In order to identify potentially higher-performing enzymes for industrial use capable of converting glycolaldehyde to glycolic acid, we evaluated a plurality of candidates based on either close, medium, or distant phylogeny to ecoALDH (SEQ ID NO: 265). A subset of candidate enzymes were cloned, expressed, and purified, along with ecoALDH as a control, as described in Example 8.1, and their in vitro enzymatic activities were measured in a reaction mixture consisting of 50 mM glycolaldehyde in 100 mM Tris-HCl buffer (pH 8.5). The reaction was initiated by the addition of the purified enzyme, and activity was measured by monitoring the formation of glycolic acid over time. […]

Substrate in series [5]: OCCO
Kind of series: Alcohol dehydrogenase (EG oxidation) Michaelis-Menten kinetics, gdiADH. The format is biochemical, Gluconobacter diazotrophicus. The note with it: other: role: substrate, 100 mM Tris-HCl pH 8.5, 30 °C, saturating NAD, EG 1-100 mM.
Excerpt: as §1, §2
(§3) The candidate alcohol dehydrogenase enzymes were next characterized for their enzymatic activity. […] Reactions were initiated by the addition of the purified enzyme and enzymatic activity was measured by monitoring the formation of the product (glycolaldehyde) over time as described in Example 8.1. […]

Substrate in series [6]: OCCO
As to the kind of experiment: Alcohol dehydrogenase (EG oxidation) Michaelis-Menten kinetics, goxADH. Format: biochemical, Gluconobacter oxydans. The note with it: other: role: substrate, 100 mM Tris-HCl pH 8.5, 30 °C, saturating NAD, EG 1-100 mM.
Excerpt: as §1, §2, §3

Substrate in series [7]: OCCO
As to the kind of experiment: Alcohol dehydrogenase (EG oxidation) Michaelis-Menten kinetics, gmoADH. The format is biochemical, Gluconobacter morbifer. Conditions: other: role: substrate, 100 mM Tris-HCl pH 8.5, 30 °C, saturating NAD, EG 1-100 mM.
Excerpt: as §1, §2, §3

[8] abbreviates: role: inhibitor, substrate inhibition, relative to ecoALDH.
[9] abbreviates: role: substrate, relative to ecoALDH.
[10] abbreviates: role: substrate, versus ecoALDH.

Take `O=CCO` [glycolaldehyde]: the “Relative KI” value in series [1] (setting [8]) turned out to be 1.3; in series [3] (role: inhibitor, substrate inhibition), 1.0; in series [4] (setting [8]), 5.6. The Relative kcat in series [1] (setting [9]) is listed as 5.8; in series [3] (role: substrate), 1.0; in series [4] (setting [9]) it was 5.3. The “catalytic turnover rate, fold higher than ecoALDH” value in series [1] (setting [10]) amounted to 5.8 fold; in series [4] (setting [10]), 5.3 fold. The “turnover and catalytic efficiency for glycolaldehyde as a substrate” value in series [2] (compared to ethylene glycol) was “higher turnover and catalytic efficiency”. Besides, the “affinity and catalytic rate for glycolaldehyde reduction to ethylene glycol” value in series [2] (compared to the oxidation of ethylene glycol) is “higher affinity and catalytic rate”. Also, in series [4] (role: inhibitor, glycolaldehyde substrate inhibition, versus ecoALDH), the “resistance to substrate inhibition, fold higher than ecoALDH” value is 5.6 fold.

B1: Gluconobacter diazotrophicus alcohol dehydrogenase gdiADH, SEQ ID NO: 208 (Gluconacetobacter diazotrophicus PA1 5) (protein)
chain: MRSADTILGGTSMTGKMKAAVVREFGKPLTIEELDIPSIRPDQILVKMDACGVCHTDLHAARGDWPVKPNPPFIPGHEGVGHVVSVGSAVKWVKLGDVVGVPWLYSACGHCEHCLGGWETLCASQDDTGYTVNGCFAEYVVADPSYVAHLPKTIDPLQVAPVLCAGLTVYKGLKMTDTKPGDWVAVSGVGGLGQMAVQYGVAMGMNVIAVDIDDEKLATAKALGAALTVNARATDPAPFIQSQVGGAHGALVTAVSRSAFSQAMGFARRGGTIVLNGLPPGEFPISIFDMVMAGTTVRGSIVGTRLDMIEAVSFFADGKVKTVIEPDRLENINQIFTDLEEGKIQGRKVLDFRQ
The term Vmax denotes the rate approached at saturating substrate. Take B1: in series [5], the Km is given as 230 ± 87 μM EG and the Vmax was determined as 7.5 ± 2.1 µmol/min/mg.

B2: Gluconobacter oxydans alcohol dehydrogenase goxADH (Gox0313), SEQ ID NO: 206 (Gluconobacter oxydans 621H) (protein)
chain: MADTMLAAVVREFGKPLSIERLPIPDIKPHQILVKVDTCGVCHTDLHAARGDWPSKPNPPFIPGHEGVGHIVAVGSQVGDFVKTGDVVGVPWLYSACGHCEHCLGGWETLCEKQDDTGYTVNGCFAEYVVADPNYVAHLPSTIDPLQASPVLCAGLTVYKGLKMTEARPGQWVAVSGVGGLGQMAVQYAVAMGMNVVAVDIDDEKLATAKKLGASLTVNAKDTDPARFIQQQIGGAHGALVTAVGRTAFSQAMGYARRGGTIVLNGLPPGDFPVSIFDMVMNGTTIRGSIVGTRLDMIEAMDFFARGKVKSVVTPGKLENINTIFDDLQNGRLEGRTVLDFRS
Regarding B2, in series [6], the maximal velocity (Vmax) came to 2.0 ± 0.1 µmol/min/mg.

B3: Gluconobacter morbifer alcohol dehydrogenase gmoADH, SEQ ID NO: 207 (Gluconobacter morbifer G707) (protein)
chain: MADTMQAAVVREFGKPLSIERVPVPEIRPNQILVKVETCGVCHTDLHAARGDWPTKPNPPFIPGHEGVGRIVALGSQVGDFVKVGDRVGVPWLYSACGHCEHCLGGWETLCEKQEDTGYSVNGCFAEYVAADPNYVAHLPENIDPLETSPVLCAGLTVYKGLKMTEARPGQWVAVSGIGGLGQMAVQYAVAMGMNVVAVDIDDGKLETAKKLGAVLTVNAKDRDPAKFVQQEIGGAHGALVTAVGRTAFAQAMGYARRGGTIVLNGLPPGDFPISIFDMVMNGTTVRGSIVGTRLDMIEALDFFARGKVKSVVTADKLENINTIFDNLQNGRLAGRTVLDFRS
For B3, in series [7], the Km is given as 200 ± 44 μM EG and the Vmax turned out to be 4.9 ± 0.8 µmol/min/mg.

(Values after US20260357306A1, “ONE-POT FERMENTATIVE PRODUCTION OF GLYCOLATE OR OTHER HYDROXYCARBOXYLIC ACIDS” (PHYCUS BIOTECHNOLOGIES INC., priority 2023, published 2026).)
